The term IC50 denotes the midpoint of a concentration-inhibition curve. A lower IC50 goes with higher potency.

Molecules are shown by their SMILES. Converted amounts (≈) assume the structure as drawn. Bounds are passed on as bounds.

Drawing on the Kinase Knowledgebase extract (Sharma et al. 2016), this text covers IC50 for 46 compounds.

In the test the target is EGFR (UniProt P00533).
EGFR, sequence (P00533 whole entry, looked up): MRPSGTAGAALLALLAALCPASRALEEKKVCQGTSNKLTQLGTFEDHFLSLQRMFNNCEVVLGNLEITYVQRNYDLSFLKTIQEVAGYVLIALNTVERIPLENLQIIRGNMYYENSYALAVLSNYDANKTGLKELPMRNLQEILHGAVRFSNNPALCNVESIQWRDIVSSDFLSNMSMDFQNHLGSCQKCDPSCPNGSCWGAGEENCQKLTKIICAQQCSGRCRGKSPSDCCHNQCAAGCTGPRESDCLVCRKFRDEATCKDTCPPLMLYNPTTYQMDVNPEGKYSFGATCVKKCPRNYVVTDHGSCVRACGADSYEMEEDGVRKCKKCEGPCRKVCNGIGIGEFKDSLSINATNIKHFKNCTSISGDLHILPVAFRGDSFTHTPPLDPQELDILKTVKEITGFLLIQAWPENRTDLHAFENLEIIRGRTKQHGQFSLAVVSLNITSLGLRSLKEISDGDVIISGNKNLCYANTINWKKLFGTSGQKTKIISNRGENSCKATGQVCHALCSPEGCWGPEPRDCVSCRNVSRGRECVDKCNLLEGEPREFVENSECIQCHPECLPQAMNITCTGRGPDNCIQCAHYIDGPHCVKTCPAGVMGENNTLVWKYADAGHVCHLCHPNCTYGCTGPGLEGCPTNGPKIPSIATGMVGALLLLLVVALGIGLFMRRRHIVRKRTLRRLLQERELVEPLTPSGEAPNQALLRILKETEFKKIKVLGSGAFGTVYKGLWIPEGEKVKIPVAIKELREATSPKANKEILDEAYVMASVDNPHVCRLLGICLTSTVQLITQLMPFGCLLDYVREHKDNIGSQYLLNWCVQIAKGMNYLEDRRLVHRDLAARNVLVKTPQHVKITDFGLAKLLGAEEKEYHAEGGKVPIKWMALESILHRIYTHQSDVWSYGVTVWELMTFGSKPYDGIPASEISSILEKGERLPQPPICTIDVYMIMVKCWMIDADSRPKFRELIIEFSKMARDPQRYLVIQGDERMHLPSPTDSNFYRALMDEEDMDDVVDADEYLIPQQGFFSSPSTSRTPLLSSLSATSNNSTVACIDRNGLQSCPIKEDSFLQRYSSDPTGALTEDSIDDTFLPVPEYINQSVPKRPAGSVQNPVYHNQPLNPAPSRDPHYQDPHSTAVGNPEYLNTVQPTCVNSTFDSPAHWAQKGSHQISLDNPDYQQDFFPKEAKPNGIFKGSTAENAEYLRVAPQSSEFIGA

`COc1ccc(Nc2ncnc(-n3c(N)nc4ccccc43)n2)cc1OCCN1CCOCC1` came in with a concentration for half-maximal inhibition (IC50) above 4.5 µg/mL.
With `COc1cc(Nc2ncnc(-n3ccc4ccccc43)n2)cc(OC)c1OC` the figure was above 4.5 µg/mL; with `CCOc1cccc(Nc2ncnc(N3CCCc4cc(C)ccc43)n2)c1`, below 0.4 µg/mL.
With `C=CCNc1ncccc1-c1ncnc(Nc2ccc(C(N)=O)cc2)n1` the figure was above 4.5 µg/mL.
With `O=C(Nc1cccc(Nc2ncnc(-n3c(=O)[nH]c4ccccc43)n2)c1)O[C@@H]1CCOC1` the figure was 2.4 to 3.5 µg/mL (≈ 5.54 to 8.08 µM).
The compound `CN(c1cccc(Cl)c1)c1ncnc(Nc2ncccn2)n1` had an IC50 below 0.4 µg/mL.
With `c1csc(-c2ncnc(Nc3ccc4c(c3)OCO4)n2)c1` the figure was above 4.5 µg/mL.
With `COc1cc(Nc2ncnc(-c3ccnc(N4CCCCC4)c3)n2)cc(OC)c1OC` the figure was above 4.5 µg/mL.
The figure for `Fc1cccc(Nc2ncnc(-c3cccs3)n2)c1` is above 4.5 µg/mL; for `COc1ccc(Nc2ncnc(N(C)c3ccc(S(=O)(=O)O)cc3)n2)cc1OC` it is above 4.5 µg/mL.
Compound `CN(c1cccc(Cl)c1)c1ncnc(N[C@@H]2CCN(Cc3ccccc3)C2)n1` had an IC50 above 4.5 µg/mL.
With `COc1cc(Nc2ncnc(Nc3ccc(NC(C)=O)c(C(F)(F)F)c3)n2)cc(OC)c1OC` the figure was 2.4 to 3.5 µg/mL (≈ 5.02 to 7.32 µM).
The figure for `COc1ccc(Sc2ncnc(Nc3cc(OC)c(OC)c(OC)c3)n2)cc1` is above 4.5 µg/mL; for `COc1ccc(Nc2ncnc(NC[C@@H]3CCCO3)n2)cc1OC` it is above 4.5 µg/mL; for `COc1ccc(Nc2ncnc(Nc3cc(OC)c(OC)c(OC)c3)n2)cc1OCCN1CCOCC1` it is 3.5 to 4.5 µg/mL (≈ 6.83 to 8.78 µM).
`COc1cc(Nc2ncnc(Nc3nc(-c4ccccc4)cs3)n2)cc(OC)c1OC` yielded an IC50 above 4.5 µg/mL.
With `COc1cc(Nc2ncnc(-n3c(NC(C)=O)nc4ccccc43)n2)cc(OC)c1OC` the figure was above 4.5 µg/mL; with `COc1ccc(Nc2ncnc(-c3cccs3)n2)cc1OC`, above 4.5 µg/mL; with `Nc1nc2ccccc2n1-c1ncnc(N2C(=O)c3ccccc3C2=O)n1`, above 4.5 µg/mL.
The figure for `COc1cc(Nc2ncnc(-c3ccncc3)n2)cc(OC)c1OC` is above 4.5 µg/mL; for `COc1cc(Nc2ncnc(-n3c(NCc4cccs4)nc4ccccc43)n2)cc(OC)c1OC` it is 0.4 to 2.4 µg/mL (≈ 0.817 to 4.9 µM).
The figure for `COc1ccc(CNc2ncnc(Nc3cc(OC)c(OC)c(OC)c3)n2)cc1` is above 4.5 µg/mL; for `O=C(O)Cc1cccc(Nc2ncnc(Nc3ccc(Cl)cc3F)n2)c1` it is 0.4 to 2.4 µg/mL (≈ 1.07 to 6.42 µM).
The compound `COc1cc(Nc2ncnc(-c3ccc(N4CCNCC4)nc3)n2)cc(OC)c1OC` showed an IC50 of 3.5 to 4.5 µg/mL (≈ 8.26 to 10.6 µM).
With `CC(=O)c1ccc(Nc2ncnc(Nc3ccc4c(cnn4Cc4ccccc4)c3)n2)cc1` the figure was below 0.4 µg/mL; with `COc1cc(Nc2ncnc(Nc3nc4ccccc4s3)n2)cc(OC)c1OC`, above 4.5 µg/mL.
`COc1ccc(Nc2ncnc(N(C)c3ccc(C(=O)O)cc3)n2)cc1OC` showed a half-inhibitory concentration (IC50) above 4.5 µg/mL.
On to `COc1cc(Nc2ncnc(-c3c(O)[nH]c4ccc(Cl)cc34)n2)cc(OC)c1OC`, for which the 50% inhibitory concentration (IC50) is 2.4 to 3.5 µg/mL (≈ 5.61 to 8.18 µM).
The figure for `COc1cc(Nc2ncnc(-c3ccnc(NCCCN)c3)n2)cc(OC)c1OC` is above 4.5 µg/mL; for `COc1cc(Nc2ncnc(-n3c(Cl)nc4ccccc43)n2)cc(OC)c1OC` it is above 4.5 µg/mL.
Consider `COc1cc(Nc2ncnc(Nc3cc(OC)c(OC)c(OC)c3)n2)cc(OC)c1OC`, for which the IC50 is 3.5 to 4.5 µg/mL (≈ 7.89 to 10.1 µM).
The figure for `COc1cc(C)c(Nc2ncnc(Nc3cc(-c4ccc(Cl)cc4)n[nH]3)n2)cc1OC` is 3.5 to 4.5 µg/mL (≈ 7.99 to 10.3 µM); for `CCOc1cccc(Nc2ncnc(Nc3ccc(OC)c(OC)c3)n2)c1` it is above 4.5 µg/mL.
The figure for `CC[C@H]1CN(c2ccc(-c3ncnc(Nc4cc(OC)c(OC)c(OC)c4)n3)cn2)CCN1` is above 4.5 µg/mL.
As to `CC(=O)NCc1ccc(Nc2ncnc(Nc3cc(-c4ccco4)n[nH]3)n2)cc1`, the IC50 fell in the range of 0.4 to 2.4 µg/mL (≈ 1.02 to 6.15 µM).
With `COc1cc(Nc2ncnc(NC3CC3c3ccccc3)n2)cc(OC)c1OCCN1CCOCC1` (stereo unspecified) the figure was below 0.4 µg/mL.
The figure for `COc1ccc(Nc2ncnc(-n3c(=O)[nH]c4ccccc43)n2)cn1` is above 4.5 µg/mL.
With `COc1cc(Nc2ncnc(-n3c(NCc4cccc(Cl)c4)nc4ccccc43)n2)cc(OC)c1OC` the figure was above 4.5 µg/mL.
Consider `COc1ccc([C@H](C)Nc2nc3ccccc3n2-c2ncnc(Nc3cc(OC)c(OC)c(OC)c3)n2)cc1`, for which the 50% inhibitory concentration (IC50) was above 4.5 µg/mL.
With `COc1cc(Nc2ncnc(-c3cccnc3NCC3CCCCC3)n2)cc(OC)c1OC` the figure was above 4.5 µg/mL.
The figure for `C=CCNc1cc(-c2ncnc(Nc3cc(OC)c(OC)c(OC)c3)n2)ccn1` is above 4.5 µg/mL; for `O=c1[nH]c2ccccc2n1-c1ncnc(Nc2nccc3ccccc23)n1` it is 0.4 to 2.4 µg/mL (≈ 1.13 to 6.75 µM).
With `COC(=O)Cc1cccc(Nc2ncnc(-n3c(NCc4ccc(OC)cc4)nc4ccccc43)n2)c1` the figure was above 4.5 µg/mL; with `COc1ccc(CNc2nc3ccccc3n2-c2ncnc(Nc3cccc(CC(=O)O)c3)n2)cc1`, above 4.5 µg/mL.
The compound `COc1cc(Nc2ncnc(N(CCC(C)C)c3ccc(Cl)cc3)n2)cc(OC)c1OC` gave an IC50 below 0.4 µg/mL.
The figure for `COc1cc(Nc2ncnc(Nc3ccc(NCc4ccccc4)cc3)n2)cc(OC)c1OC` is above 4.5 µg/mL.
